Literature values as cited in US20150366901A1, “Methods of Treating Heart Failure” (The Trustees of the University of Pennsylvania, priority 2013, published 2015).

Key:
old mice = conditions: supplementation for 3 weeks, 478 AU before, young counterparts 332 AU
healthy volunteers = conditions: ingestion of 8 mmol, 3 hours post-ingestion
[1] = nitrite formed from nitrate by oral cavity commensal bacteria

O=NO [sodium nitrite]
aortic pulse wave velocity (PWV) after supplementation (old mice): 384 AU

inorganic nitrate
aortic pulse wave velocity (healthy volunteers): decrease in aortic pulse wave velocity

O=[N+]([O-])O [nitrate]
half-life in plasma (circulating nitrate): ~5 h
share of circulating nitrate actively taken up by the salivary glands (concentrated in saliva, rest excreted by the kidneys): Up to 25%

O=NO [nitrite]
oral bioavailability [1]: > 95%
